Publication PMC6394990, “Detailed characterization of the solution kinetics and thermodynamics of biotin, biocytin and HABA binding to avidin and streptavidin” (PLoS ONE, 2019)
Values joined by “and” are separate entries in the source; they are usually repeats but may differ in a detail not shown here. Equal values may be shown once. Read-outs that look alike come from different tables or passages of the source.

Biological target: T1, avidin (AV) (Gallus gallus, UniProt P02701)
T1 construct: purchased Calbiochem (La Jolla, CA)
T1 sequence (P02701 25-152): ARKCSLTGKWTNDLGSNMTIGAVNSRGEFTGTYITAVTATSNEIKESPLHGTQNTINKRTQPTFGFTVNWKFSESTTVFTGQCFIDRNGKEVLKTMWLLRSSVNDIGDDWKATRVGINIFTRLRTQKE
Assay: Stopped-flow association kinetics of dye-labeled biotin probes binding to avidin (F(t), rF(t); Arrhenius plots/global fitting)
Design: ln(k) / dS+ / dG+ / Eon for BFl / b of the line y = m1x+b1: unit not given here
Conditions: for k(average): k (full value)
Protocol: These reactions were carried out in a buffered solution of 10 mM Tris-HCl, 100 mM KCl, 2.5 mM MgCl2 and 1 mM CaCl2 at pH 8 and only AV-BcO reactions included pH 9 and 10. The concentrations, after mixing, were of 20 nM of dye-labeled B7 probe and 260 nM, 520 nM or 1040 nM of AV; and 200 nM, 300 nM, 400 nM or 800 nM of SAV at temperatures of 10, 15, 20 and 25°C. The deglycosylation of AV (for comparative association reactions) was carried out using the provided standard protocol with endoglycosidase H [47], both with and without incubation of a denaturant solution (2% SDS and 1M 2-mercaptoethanol).
The reactions were collected with the SF instrument, described previously. The fluorescence signal was collected through a 520 nm interference filter (Oriel Corp., Stratford, CT) with a detector time constant and SF dead time of 1 μs and 1 ms, respectively. The excitation light was provided by the Coherent Ar^+ ion laser (described above) at 488 nm with […] of incident power on the reaction cuvette. The laser source was followed by the photo-elastic modulator described above with the axis oriented 45^o with respect to the electric vector of the incident light and with the half-wave modulation (50 kHz) set for 488 nm excitation. The demodulation circuitry following the photomultiplier provided a DC(t) and a rectified AC(t) which were converted to digital data by a high-speed digitizer (PCI-5122) from National Instruments (Austin, TX) with 14-bit resolution and 100 MHz bandwidth, through channels 0 and 1. The data acquisition was controlled by LabVIEW (Vr 8) software at a collection rate of 6120 data points/second and stored in spreadsheets. The AC(t) and DC(t) data were baseline corrected before obtaining the signal ratio (Eq 4) as a function of time (ρt).
The constant AGain is the instrumental amplitude gain and was evaluated by solving ρ(t) using the known steady state anisotropy (rss) of the complexes which is equivalent to the r(t) at t = ∞; and H, obtained from the equivalent grating factor (G) for the filters and photo multiplier tubes in the SF. For the probes used in here G was 0.82 and H = (1-G)/(1+G) = 0.099. Knowing Again and H, the AC(t) and DC(t) signals can be solved for r(t) and F(t) (Eqs 4 and 5) and the normalized fluorescence, F¯(t) , and corrected fluorescence anisotropy, rF¯(t), were obtained when F¯(0) and rF¯(0) were scaled to 1 at t = 0.
The F¯(t) (Eq 6) is equivalent to (I||) + 2 (I⊥) and proportional to quantum yield (QYi), molar absorptivity (εi) and to the formation or disappearance of the emitting species Xi(t); and rF¯(t) including the steady state anisotropies (rss) of each fluorescent species (Eq 7).
The possible reaction models were discriminated by the squared residuals of the observed and calculated association traces of both fluorescence and anisotropy fluorescence signals, F¯(t) and rF¯(t) , respectively.

[1] = AV, average over the dye-labeled B7 probes, used for AV-B7

O=C(O)CCCC[C@@H]1SC[C@@H]2NC(=O)N[C@@H]21 [B7, d-biotin]
Eaon + (-∆H°) (AV-B): 36.5 ± 1.3 kcal/mol
∆G°ǂ + (-∆G°) (AV-B): 25.4 ± 1.0 kcal/mol
∆S°ǂ + (-∆S°) (AV-B): 41.9 ± 2.0 cal/mol°K
ΔE = Ea^Forward-Ea^Backward (AV-B7, column 3 minus 4): -23.2 ± 2.2 kcal/mol and -23.2 kcal/mol
ΔG° ^ǂ, Forward -ΔG° ^ǂ, Backward (AV-B7, column 3 minus 4): -20.0 ± 4.0 kcal/mol
ΔS° ^ǂ, Forward -ΔS° ^ǂ, Backward (AV-B7, column 3 minus 4): -11.0 ± 2.5 cal/mol°K
fold slower than 10^9 M^-1s^-1 (diffusion limited) (AV, 25°C): 54-714 X
ΔG^ǂ, Forward [1]: 4.7 ± 0.3 kcal/mol and 4.7 kcal/mol
ΔS^ǂ, Forward [1]: 32 cal/°K·mol
ΔS^ǂ, Forward (AV, average over the dye-labeled B7 probes, used for AV-B7, listed as B): 33.0 ± 2.0 cal/°K·mol

O=C(CCCC[C@@H]1SC[C@@H]2NC(=O)N[C@@H]21)NCCNC(=O)c1ccc(-c2c3ccc(=O)cc-3oc3cc(O)ccc23)c(C(=O)O)c1 [BFl, Biotin-4-fluorescein]
kon fold slower than Green's 7 × 10^7 M^-1s^-1 (25°C and pH 8 vs 25°C and pH 5): 3.8 X
fold by which the SPR kon (ref 20) is slower than the kon of the probe (AV): ~ 9 X
kon (AV, 25°C, read-out: kon): ~1.9e+07 M⁻¹ s⁻¹
Ea^Forward (AV, pH 8): 14.6 ± 0.6 kcal/mol
ln(k) (AV, pH8, 10 (283.15 K)): 15.4
k(average) (AV, pH8, 10 (283.15 K)): 4.86E+06
kon (AV, pH8, 10 (283.15 K), k (scaled)): 4.9e+06 M⁻¹ s⁻¹
ln(k) (AV, pH8, 15 (288.15 K)): 15.8
k(average) (AV, pH8, 15 (288.15 K)): 7.60E+06
kon (AV, pH8, 15 (288.15 K), k (scaled)): 7.6e+06 M⁻¹ s⁻¹
ln(k) (AV, pH8, 20 (293.15 K)): 16.2
k(average) (AV, pH8, 20 (293.15 K)): 1.07E+07
kon (AV, pH8, 20 (293.15 K), k (scaled)): 1.07e+07 M⁻¹ s⁻¹
ln(k) (AV, pH8, 25 (298.15 K)): 16.7
k(average) (AV, pH8, 25 (298.15 K)): 1.85E+07
kon (AV, pH8, 25 (298.15 K), k (scaled)): 1.85e+07 M⁻¹ s⁻¹
ΔG^ǂ (AV, pH 8, forward): 4.2 ± 0.5 kcal/mol
ΔS^ǂ (AV, pH 8, forward): 34.9 ± 2.0 cal/°K·mol
slope (Arrhenius linear fit) (AV, ph8): -7342.9
kcal/mol (from Arrhenius slope) (AV, ph8, the values are: Ea forward): 14.6 kcal/mol
Eon for BFl (Enthalpy block, AV): 14.4
kon (pH 8, AV, pH 8, 10°C, read-out: kon): 4.86e+06 ± 600000 M⁻¹ s⁻¹
kon (pH 8, AV, pH 8, 15°C, read-out: kon): 7.6e+06 ± 2e+06 M⁻¹ s⁻¹
kon (pH 8, AV, pH 8, 20°C, read-out: kon): 1.07e+07 ± 1.6e+06 M⁻¹ s⁻¹
kon (pH 8, AV, pH 8, 25°C, read-out: kon): 1.85e+07 ± 2e+06 M⁻¹ s⁻¹
